The values that follow come from patent publication US20220167853A1, “Method for plaque detection” (Koite Health Oy, priority 2019, published 2022).

Experiment [1] deals with Streptococcus mutans biofilm. Nature of the experiment: Streptococcus mutans monospecies biofilm model, PDT with indocyanine green, viability by serial dilution CFU. The experiment is classed as cell-based, Streptococcus mutans (ATCC 25175). To be noted: 250 μg/ml ICG with 810 nm light. The procedure: Two separate monospecies biofilm model experiments were performed to study the effect of reoccurring photodynamic therapy on biofilm formation. The Streptococcus mutans biofilm experiments were divided in different classes based on biofilm age and the therapy given.
The one-time PDT treatment was performed for 1 day, 2 days and 4 days old biofilms. […] The viability of the bacteria was assessed by serial dilution CFU method which was performed after the last photodynamic therapy treatment.
Streptococcus mutans (ATCC 25175) bacteria was grown over 18 h in growth chamber (36° C., 5% CO2) in BHI-broth (Bio-Rad 3564014). The resulting bacteria suspension was diluted with 0.9% NaCl suspension to optical density of 0.46.
Biofilm was grown on bottom of well plate by adding 100 ul diluted Streptococcus mutans suspension in each well with 100 μl of BHI-broth growth medium. The bacteria plate was incubated in growth chamber (36 Celsius, 5% CO2) and BHI-broth medium changed daily.
Before the light exposure, the growth medium was replaced with indocyanine green suspension which was let to incubate in dark in room temperature for 10 minutes. […] The treatment time was calculated from desired light amount and known intensity.
The light exposure was performed by placing the well plate under known LED light source. The given light intensity was analyzed with Thorlabs PM100D and S121C sensor head. […]

For experiment [2], the system named is Streptococcus mutans biofilm. Nature of the experiment: Potentiation of chlorhexidine with dual wavelength PDT. In kind it is cell-based. The settings on record: versus reference and treatment with only one wavelength; FIG. 3. The source says: Treatment can be combined with use of antibiotics and disinfectants for synergist antipathogen effect. For example, the use phototherapy with chlorhexidine to target biofilms is new to oral disinfection. The results of dual wavelength photodynamic therapy with chlorhexidine against Streptococcus mutans biofilm shown in appendix III are completely new. […] The effectivity is based on photon and anionic photosensitizer ability to penetrate deeper into biofilm and provide efficient bacteria killing inside the biofilm as well as on the surface. The chlorhexidine effect is mostly present only on the surface of the biofilm. High energy photons reduce the biofilm EPS matrix formation that further increases the chlorhexidine effectivity in subsequent treatments. In a second series of tests, potentiation of chlorhexidine with dual wavelength PDT was evaluated.

Experiment [3] relates to monospecies biofilm of Streptococcus sobrinus. To be noted: monospecies biofilm vs planktonic form; cited from earlier work.

“Also recorded” adds a separate entry of the source.

As for `CC1(C)C(/C=C/C=C/C=C/C=C2\N(CCCCS(=O)(=O)O)c3ccc4ccccc4c3C2(C)C)=[N+](CCCCS(=O)(=O)[O-])c2ccc3ccccc3c21` [ICG, Indocyanine Green], the “effect of PDT treatment on biofilm (CFU)” value in experiment [1] (single wavelength, 4 days old biofilm treated every day) was “poor treatment effect”; in experiment [1] (treatment given once to 1, 2 and 4 days old biofilms) it was “strong effect”. With `[H]/N=C(\N/C(=N/[H])NCCCCCCNC(=N)NC(=N)Nc1ccc(Cl)cc1)Nc1ccc(Cl)cc1` [chlorhexidine], the “antimicrobial effect of chlorhexidine combined with multi (dual) wavelength PDT” value in experiment [2] is reported as “increased substantially; also recorded: much stronger effect”. Moreover, the “greater concentration needed to kill biofilm than planktonic counterpart” value in experiment [3] is given as 100 time. In the case of amine fluoride, the “greater concentration needed to kill biofilm than planktonic counterpart” value in experiment [3] was 100 time.
